Assay results as given in patent US20060009425A1, “Oral formulations of paricalcitol” (priority 2004, published 2006).

Legend:
Type in all cases: in vivo, human
[1] = tested on: serum parathyroid hormone (PTH) levels; experiment: Phase 3 placebo-controlled once daily study, iPTH reduction (Example 8)
From the text: Methodology: This was a Phase 3, prospective, randomized, placebo-controlled, double-blind, 24-week Treatment Phase, multi-center study in CKD (Stages 3 and 4) subjects with elevated PTH levels (≧150 pg/mL). Subjects were randomized in an equal ratio (1:1) to 1 of 2 treatment groups: Paricalcitol capsule (Group 1) and placebo (Group 2). Potential subjects underwent procedures to determine their baseline intact PTH (iPTH), calcium, and phosphorus levels for eligibility to receive treatment.
(§1) During the Treatment Phase, subjects were to self-administer study drug once daily for a total of 24 weeks. The initial dose was 1 or 2 mcg (depending on baseline iPTH levels). Procedures to be performed during the Treatment Phase included vital signs, chemistry and hematology, urinary pyridinoline, urinary deoxypyridinoline, serum bone-specific alkaline phosphatase, serum osteocalcin, urinalysis, spot urine for calcium/creatinine ratio, and recording of adverse events and concurrent medications. Serum iPTH, calcium, phosphorus, and albumin were measured every 2 weeks. Dose adjustments were to be made according to these chemistry results for iPTH, calcium, and phosphorus. Doses may have been increased in 1 mcg increments every 4 weeks. Dose reductions were to occur according to a protocol-specified algorithm. However, dosing could have been adjusted any time if, in the judgment of the Investigator, a risk to subject safety existed.
Efficacy: The primary efficacy endpoint was the achievement of 2 consecutive >30% decreases from baseline iPTH levels.
The secondary efficacy analyses include change and percent change from baseline analyses in iPTH and change from baseline analyses in biochemical bone activity markers.
The Intent-To-Treat population (Full Analysis Set) was defined as all randomized subjects with a baseline iPTH and at least 2 on-treatment iPTH measurements. This population was used in the primary efficacy analysis.

[2] = tested on: biochemical bone activity markers; experiment: Phase 3 once daily study, biochemical bone activity markers (Table E); conditions: CKD Stage 3 and 4, daily (QD) treated subjects (Table E)
Protocol: Serum bone-specific alkaline phosphate and serum osteocalcin are considered more sensitive bone markers to evaluate degree of bone remodeling than urinary bone marker. […] As shown in Examples 5-7 and Tables C (Example 5), Table D (Example 6) and Table E (Example 7), certain biochemical bone activity marker variables were analyzed in CKD Stage 3 and 4 subjects. These subjects received treatment with the oral formulations of the present invention or a placebo. The bone markers examined in these subjects were serum osteocalcin, serum bone-specific alkaline phosphatase, urinary pyridinoline, and deoxypyridinoline. If more than 1 biochemical bone activity marker measurement existed for a subject on a particular day, the higher measurement was considered to be that subject's biochemical bone activity marker measurement for that day. […] The Final Visit measurement was defined as the last biochemical bone activity marker measurement following the first dose of study drug.
(§2) The Week 11 Visit measurement was defined as the biochemical bone activity marker measurement on the day closest to the Week 11 scheduled visit, for which the possible measurements to choose from were those collected within 64 and 77 days following the first dose of study drug.
(§3) Changes from baseline to Week 11 Visit and to Final Visit in biochemical bone activity markers were compared between oral paricalcitol and placebo using an ANOVA with treatment as the factor on the combined Phase 3 all treated subject population (Table F). Also, the changes from baseline to Week 11 Visit and to Final Visit were compared between oral paricalcitol and placebo using an ANCOVA with baseline as the second factor on the combined Phase 3 all treated subject population (Table G).
as §1

[3] = tested on: biochemical bone activity markers; experiment: Combined Phase 3 studies, biochemical bone activity markers
From the text: Serum bone-specific alkaline phosphate and serum osteocalcin are considered more sensitive bone markers to evaluate degree of bone remodeling than urinary bone marker. […] These subjects received treatment with the oral formulations of the present invention or a placebo. The bone markers examined in these subjects were serum osteocalcin, serum bone-specific alkaline phosphatase, urinary pyridinoline, and deoxypyridinoline. If more than 1 biochemical bone activity marker measurement existed for a subject on a particular day, the higher measurement was considered to be that subject's biochemical bone activity marker measurement for that day. […] The Final Visit measurement was defined as the last biochemical bone activity marker measurement following the first dose of study drug.
as §2, §3
In this example, paricalcitol capsules were evaluated in 3 double-blind, placebo-controlled multicenter studies in CKD stage 3-4 subjects with 2° HPT; 2 of these studies were conducted with TIW dosing and 1 was done with QD dosing. Subjects with eGFR (MDRD formula) 15-60 ml/min/1.73 m^2, iPTH ≧150 pg/mL, serum Ca 8.0-10.0 mg/dL and PO4≦5.2 mg/dL were randomized 1:1 and treated with paricalcitol capsule or placebo for 24 weeks. A total of 145 subjects used TIW regimen (paricalcitol: 72; placebo: 73) and 75 subjects (paricalcitol: 35; placebo: 40) used QD regimen. After the initial doses, doses were titrated based on serum Ca, P and iPTH results that were measured every 2 weeks; dose increases occurred once every 4 weeks and decreases every 2 weeks. Dosing administrations are shown below in Table 18.

[4] = Phase 3 studies combined, all treated subjects
[5] = Phase 3 studies combined, all treated subjects, listed as Oral Paricalcitol
[6] = Phase 3 studies combined, all treated subjects, listed as oral paricalcitol
[7] = Phase 3 studies, TIW Treatment Regimen

C[C@H](/C=C/[C@H](C)C(C)(C)O)[C@H]1CC[C@H]2/C(=C/C=C3C[C@@H](O)C[C@H](O)C3)CCC[C@]12C [Paricalcitol, 19-nor-1α,3β,25-trihydroxy-9,10-secoergosta-5(Z); 7(E),22(E)-triene]
subjects with 4 consecutive ≧30% decreases from baseline in iPTH ([1]; 23/33, exploratory analysis): 70%
subjects with 2 consecutive ≧30% decreases from baseline in iPTH ([1]; 30/33, once daily, 24 weeks, CKD Stages 3 and 4): 91%
maximum decrease from baseline in iPTH ([1]; observed at Week 23): −52.4%
30% mean reduction in iPTH occurred by ([1]; once daily): ≤ 7 Week
mean change from baseline in iPTH at the Final Visit ([1]; once daily, 24 weeks): -46.9 pg/mL
mean change from baseline in iPTH at the Last On-Treatment Visit ([1]; once daily, 24 weeks): -130.8 pg/mL
percent decrease in iPTH at the Final Visit ([1]; once daily, 24 weeks): 15.2%
percent decrease in iPTH at the Last On-Treatment Visit ([1]; once daily, 24 weeks): 50.0%
Serum Bone-Specific Alkaline Phosphatase, Change from Baseline (SE) to Final [2]: −7.575 (1.3976) mcg/L
Serum Bone-Specific Alkaline Phosphatase, Change from Baseline (SE) to Week 11 [2]: −5.383 (1.0482) mcg/L
Serum Osteocalcin, Change from Baseline (SE) to Final [2]: −27.07 (5.544) ng/mL
Serum Osteocalcin, Change from Baseline (SE) to Week 11 [2]: −0.22 (4.968) ng/mL
Urinary Deoxypyridinoline, Change from Baseline (SE) to Final [2]: 0.0100 (0.01392) nmol/mg Creat
Urinary Deoxypyridinoline, Change from Baseline (SE) to Week 11 [2]: −0.0216 (0.01018) nmol/mg Creat
Urinary Pyridinoline, Change from Baseline (SE) to Final [2]: 0.26 (4.452) nmol/mmol Creat
Urinary Pyridinoline, Change from Baseline (SE) to Week 11 [2]: −5.27 (3.884) nmol/mmol Creat
Serum Osteocalcin, Change from Baseline (SE) to Week 11 [3, 4]: −3.94 (2.431) ng/mL
Urinary Deoxypyridinoline, Change from Baseline (SE) to Final [3, 4]: −0.0058 (0.00514) nmol/mg Creat
Urinary Pyridinoline, Change from Baseline (SE) to Week 11 [3, 4]: −5.21 (1.938) nmol/mmol Creat
Serum Bone-Specific Alkaline Phosphatase, Change from Baseline (SE) to Final [3, 5]: −7.890 (0.7596) mcg/L
Serum Bone-Specific Alkaline Phosphatase, Change from Baseline (SE) to Week 11 [3, 5]: −5.024 (0.6279) mcg/L
Serum Osteocalcin, Change from Baseline (SE) to Final [3, 5]: −21.64 (2.706) ng/mL
Urinary Deoxypyridinoline, Change from Baseline (SE) to Week 11 [3, 5]: −0.0155 (0.00433) nmol/mg Creat
Urinary Pyridinoline, Change from Baseline (SE) to Final [3, 5]: −3.61 (1.896) nmol/mmol Creat
Serum Bone-Specific Alkaline Phosphatase, Change from Baseline (SE) to Final [3, 6]: -7.89 µg/L
Serum Bone-Specific Alkaline Phosphatase, Change from Baseline (SE) to Week 11 [3, 6]: -5.024 µg/L
Serum Osteocalcin, Change from Baseline (SE) to Final [3, 6]: -21.64 ng/mL
Urinary Deoxypyridinoline, Change from Baseline (SE) to Week 11 [3, 6]: −0.0155 nmol/mg Creat
Urinary Pyridinoline, Change from Baseline (SE) to Final [3, 6]: −3.61 nmol/mmol Creat
Serum Bone-Specific Alkaline Phosphatase, Change from Baseline (SE) to Final [3, 7]: −8.043 (0.9033) mcg/L
Serum Bone-Specific Alkaline Phosphatase, Change from Baseline (SE) to Week 11 [3, 7]: −4.869 (0.7835) mcg/L
Serum Osteocalcin, Change from Baseline (SE) to Final [3, 7]: −18.96 (2.944) ng/mL
Serum Osteocalcin, Change from Baseline (SE) to Week 11 [3, 7]: −5.53 (2.720) ng/mL
Urinary Deoxypyridinoline, Change from Baseline (SE) to Final [3, 7]: −0.0130 (0.00357) nmol/mg Creat
Urinary Deoxypyridinoline, Change from Baseline (SE) to Week 11 [3, 7]: −0.0129 (0.00426) nmol/mg Creat
Urinary Pyridinoline, Change from Baseline (SE) to Final [3, 7]: −5.47 (1.789) nmol/mmol Creat
Urinary Pyridinoline, Change from Baseline (SE) to Week 11 [3, 7]: −5.19 (2.213) nmol/mmol Creat
Bone Spec. Alk Phos, Mean Change from Baseline ([3]; QD Regimen, N = 33 (Table 20)): −7.6 (1.40) mcg/L
Serum Osteocalcin, Mean Change from Baseline ([3]; QD Regimen, N = 33 (Table 20)): −27.1 (5.54) ng/mL
Serum Osteocalcin, Mean Change from Baseline ([3]; TIW Regimen, N = 67 (Table 20)): −19.0 (2.94) ng/mL
Bone Spec. Alk Phos, Mean Change from Baseline ([3]; TIW Regimen, N = 68 (Table 20)): −8.0 (0.90) mcg/L
